The source of these data is US20100015603A1, “Chimeric proteins for measuring atp concentrations in pericellular space and related screening method” (priority 2005, published 2010).

Common to all, as to assay type: cell-based
Assay [1] concerns the target T1, pmeLUC (Photinus pyralis, UniProt P08659, N119G/N50D).
T1 construct: expressed in transfected cells
In words: Response of HEK293-pmeLUC cells to extracellular nucleotides (affinity and selectivity of the pmeLUC probe, luminescence). To be noted: for sensitivity of pmeLUC to other nucleotides: HEK293-pmeLUC cells, FIG. 2A. As for the experimental part:
(§1) ATP was measured in the custom-made luminometer described by Rizzuto and co-workers (Brini et al., 1999; Jouaville et al., 1999). For experiments, cells were plated onto 13 mm coverslips and were placed in a 37° C. thermostatted chamber (diameter 15 mm, height 2 mm) and perfused with a saline solution supplemented with luciferin at a concentration of 5 μM. The chamber was held in a photomultiplier kept in a dark refrigerated (4° C.) box. Light emission was detected by a Thorn EMI photon counting board installed in an IBM-compatible computer. The board allowed storing of the data in the computer memory for further analysis. During the experiments the thermostatted chamber was continuously perfused with buffer by means of a Gilson peristaltic pump. Alternatively, ATP was measured in the supernatants using soluble luciferase in a Firezyme luminometer as previously described (Baricordi et al., 1999; Solini et al, 2004; Zanovello et al., 1990).
Affinity of pmeLUC for ATP is rather low, with a threshold of about 10 μM, however, subsequent ATP additions elicit further increases in light emission that allow building a calibration curve (FIG. 2B). Importantly, pmeLUC is insensitive to all other nucleotides tested (ADP, UTP, UDP and GTP) (FIG. 2A).

The test system of assay [2] is HEK293-hP2X7 cells. In words: Extracellular ATP in supernatants of HEK293-hP2X7 cells, soluble luciferase. The note with it: n=10, quiescent 220±34 nM. As for the experimental part:
as §1
(§2) As an independent proof that HEK293-P2X7 cells release a larger amount of ATP than mock-transfected HEK293 (HEK293-mock), extracellular ATP was measured in the supernatants using soluble luciferase. Quiescent HEK293-mock cells maintained an extracellular ATP concentration of 80±20 nM (n=12), compared to 220±34 nM (n=10) for HEK-hP2X7. […]

Assay [3] concerns the target T2, rat P2X7R (Rattus norvegicus, UniProt Q64663).
T2 construct: expressed in transfected cells; host or cells: HEK293 (HEK293-rP2X7/pmeLUC)
T2 sequence (Q64663 1-595): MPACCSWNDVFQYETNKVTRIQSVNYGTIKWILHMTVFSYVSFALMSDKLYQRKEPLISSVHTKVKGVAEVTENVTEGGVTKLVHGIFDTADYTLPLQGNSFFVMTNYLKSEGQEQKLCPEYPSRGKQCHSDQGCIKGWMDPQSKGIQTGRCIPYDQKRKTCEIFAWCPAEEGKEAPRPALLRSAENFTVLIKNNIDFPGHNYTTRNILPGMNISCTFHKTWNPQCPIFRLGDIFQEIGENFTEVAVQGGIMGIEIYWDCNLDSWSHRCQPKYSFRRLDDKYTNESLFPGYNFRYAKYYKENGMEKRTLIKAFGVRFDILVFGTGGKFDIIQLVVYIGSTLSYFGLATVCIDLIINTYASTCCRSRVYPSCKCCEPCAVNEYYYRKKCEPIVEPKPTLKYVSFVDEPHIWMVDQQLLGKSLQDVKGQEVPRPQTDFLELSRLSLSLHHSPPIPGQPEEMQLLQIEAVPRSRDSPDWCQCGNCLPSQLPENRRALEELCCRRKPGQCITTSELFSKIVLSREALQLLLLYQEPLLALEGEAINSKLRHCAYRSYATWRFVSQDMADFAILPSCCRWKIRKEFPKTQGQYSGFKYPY
In words: ATP release through the P2X7 receptor in HEK293-rP2X7/pmeLUC cells, pmeLUC luminescence. As to the method:
(§3) HEK293 cells were cultured in DMEM-F12 (Sigma-Aldrich). Media were supplemented with 10% heat-inactivated FBS, 100 U/ml penicillin and 100 μg/ml streptomycin (Invitrogen corporation, San Giuliano Milanese, Italy). ACN neuroblastoma cells were cultured in DMEM supplemented with MEM non-essential amino acid solution 100× (Sigma-Aldrich). HEK293 cells were transfected with the calcium phosphate method. Cells transiently expressing the pmeLUC construct were assayed 36 hours after transfection. Clones stably expressing pmeLUC or the P2X7R were generated by culture of the transfected cells in the presence of G418 (0.8 mg/ml, added 48 hours after transfection) for 3 weeks. Stable P2X7- or pmeLUC-expressing clones were kept in the continuous presence of 0.2 mg/ml of G418 sulphate (Geneticin) (Calbiochem, la Jolla, Calif.). ACN cells were transfected with pmeLUC by lipofectamine (Invitrogen) and tested 24 hours after transfection. Briefly, cells were incubated in 250 μl serum-free transfection medium (OPTIMEM) in the presence of lipofectamine-plus-DNA (0.4 μg per well). After 3 hours incubation 1 ml of DMEM plus 10% FBS supplemented with MEM non-essential amino acid solution 100× (Sigma-Aldrich) was added. Cells were assayed 24 hours after transfection. In order to allow a high level of plasma membrane expression of the transfected constructs, cells were incubated overnight in the presence of 1 mM DTT (Mezghrani et al, 2001). Furthermore, they were also kept at room temperature (21° C.) for two hours prior to transfer into the thermostated luminometer chamber.
ATP was measured in the custom-made luminometer described by Rizzuto and co-workers (Brini et al., 1999; Jouaville et al., 1999). […] Light emission was detected by a Thorn EMI photon counting board installed in an IBM-compatible computer. […] Alternatively, ATP was measured in the supernatants using soluble luciferase in a Firezyme luminometer as previously described (Baricordi et al., 1999; Solini et al, 2004; Zanovello et al., 1990). […]

Assay [4] concerns the target T3, native P2X7R (Homo sapiens, UniProt Q99572).
T3 construct: the human ACN neuroblastoma, a cell line expressing the native P2X7R; endogenous in cells; host or cells: ACN human neuroblastoma cells, transiently transfected with pmeLUC as sensor
T3 sequence (Q99572 1-595): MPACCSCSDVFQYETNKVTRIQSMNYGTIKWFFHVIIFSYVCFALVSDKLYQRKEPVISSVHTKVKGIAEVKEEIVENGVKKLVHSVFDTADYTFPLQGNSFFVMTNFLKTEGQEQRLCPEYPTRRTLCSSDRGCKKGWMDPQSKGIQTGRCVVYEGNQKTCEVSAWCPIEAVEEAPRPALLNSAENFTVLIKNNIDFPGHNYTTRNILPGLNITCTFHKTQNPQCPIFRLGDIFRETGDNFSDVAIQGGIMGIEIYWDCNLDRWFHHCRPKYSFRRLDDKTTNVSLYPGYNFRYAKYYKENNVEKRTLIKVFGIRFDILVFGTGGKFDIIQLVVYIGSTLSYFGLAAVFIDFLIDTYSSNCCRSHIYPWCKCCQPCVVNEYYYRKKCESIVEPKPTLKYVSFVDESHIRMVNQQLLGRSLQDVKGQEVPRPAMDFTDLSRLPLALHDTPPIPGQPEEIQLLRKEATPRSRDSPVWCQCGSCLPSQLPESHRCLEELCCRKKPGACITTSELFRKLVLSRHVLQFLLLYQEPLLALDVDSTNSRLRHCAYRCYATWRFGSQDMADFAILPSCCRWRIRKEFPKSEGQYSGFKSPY
In words: ATP release from ACN neuroblastoma cells transfected with pmeLUC. As to the method:
HEK293 cells were cultured in DMEM-F12 (Sigma-Aldrich). Media were supplemented with 10% heat-inactivated FBS, 100 U/ml penicillin and 100 μg/ml streptomycin (Invitrogen corporation, San Giuliano Milanese, Italy). ACN neuroblastoma cells were cultured in DMEM supplemented with MEM non-essential amino acid solution 100× (Sigma-Aldrich). HEK293 cells were transfected with the calcium phosphate method. Cells transiently expressing the pmeLUC construct were assayed 36 hours after transfection. Clones stably expressing pmeLUC or the P2X7R were generated by culture of the transfected cells in the presence of G418 (0.8 mg/ml, added 48 hours after transfection) for 3 weeks. Stable P2X7- or pmeLUC-expressing clones were kept in the continuous presence of 0.2 mg/ml of G418 sulphate (Geneticin) (Calbiochem, la Jolla, Calif.). ACN cells were transfected with pmeLUC by lipofectamine (Invitrogen) and tested 24 hours after transfection. […]
(§4) ATP was measured in the custom-made luminometer described by Rizzuto and co-workers (Brini et al., 1999; Jouaville et al., 1999). […] Light emission was detected by a Thorn EMI photon counting board installed in an IBM-compatible computer. […] Alternatively, ATP was measured in the supernatants using soluble luciferase in a Firezyme luminometer as previously described (Baricordi et al., 1999; Solini et al, 2004; Zanovello et al., 1990).
Differences in basal levels of luminescence emission are neutralized by expressing luminescence as percentage increase over basal (FIG. 3B), however, the higher basal luminescence of HEK293-hP2X7/pmeLUC might reflect a real increased level of pericellular ATP compared to HEK293-pmeLUC, rather than a higher expression of pmeLUC. In this case, reporting luminescence as percent increase over basal would mask such a difference in the extracellular ATP concentration. To clarify this issue, total pmeLUC protein was measured by western blotting (FIG. 3C). […] To measure quantitatively surface pmeLUC expression, different clones were analyzed by FACS. […]

Assay [5] has as its system HEK293-pmeLUC cells. To be noted: for ATP release triggered by agonists of G protein-coupled receptors: HEK293-pmeLUC cells, not shown. As to the method:
as §3, §4

Assay [6] has as its system HEK293-mock cells. In words: Extracellular ATP in supernatants of HEK293-mock cells, soluble luciferase. As for the experimental part: as §1, §2
Assay [7] concerns the target T4, human P2X7R (Homo sapiens, UniProt Q99572).
T4 construct: expressed in transfected cells; host or cells: HEK293 (HEK293-hP2X7/pmeLUC)
T4 sequence (Q99572 1-595): T3 sequence (Q99572 1-595)
In words: ATP release through the P2X7 receptor in HEK293-hP2X7/pmeLUC cells, pmeLUC luminescence. As to the method:
as §3, §1
Early experiments carried out not only by the authors of the present invention had shown that supernatants from cells expressing the P2X7 receptor contained a high level of ATP, which was not due to an accelerated rate of cell lysis (Baricordi et al., 1999; Adinolfi et al., 2003; Solini et al., 2004). […] To test such hypothesis several HEK293 clones were generated stably transfected with the human or rat P2X7R (HEK293-hP2X7 or HEK293-rP2X7, respectively). These clones were then transfected with pmeLUC (HEK293-P2X7/pmeLUC).

T1 sequence (P08659 with tags, fused parts or gaps N50D/N119G): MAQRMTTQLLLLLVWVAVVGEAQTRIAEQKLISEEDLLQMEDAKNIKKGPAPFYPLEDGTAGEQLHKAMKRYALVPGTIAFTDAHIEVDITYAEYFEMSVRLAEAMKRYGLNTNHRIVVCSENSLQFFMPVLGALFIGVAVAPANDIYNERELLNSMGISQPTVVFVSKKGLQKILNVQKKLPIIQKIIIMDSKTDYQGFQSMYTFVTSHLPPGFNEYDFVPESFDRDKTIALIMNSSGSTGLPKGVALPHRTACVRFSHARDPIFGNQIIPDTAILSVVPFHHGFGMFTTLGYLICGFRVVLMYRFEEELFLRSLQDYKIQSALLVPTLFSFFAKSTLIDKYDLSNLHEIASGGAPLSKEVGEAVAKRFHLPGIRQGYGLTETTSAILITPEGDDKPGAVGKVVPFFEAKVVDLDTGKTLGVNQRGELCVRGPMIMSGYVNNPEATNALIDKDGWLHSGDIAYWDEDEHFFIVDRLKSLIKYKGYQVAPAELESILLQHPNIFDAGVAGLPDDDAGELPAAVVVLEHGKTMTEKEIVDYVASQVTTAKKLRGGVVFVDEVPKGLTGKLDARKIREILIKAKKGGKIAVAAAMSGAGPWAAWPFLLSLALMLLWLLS

As to `Nc1ncnc2c1ncn2[C@@H]1O[C@H](COP(=O)(O)OP(=O)(O)O)[C@@H](O)[C@H]1O` [ADP], the “sensitivity of pmeLUC to other nucleotides” value (“sensitivity of pmeLUC” for short) in assay [1] is listed as “insensitive”.
In the case of `Nc1ncnc2c1ncn2[C@@H]1O[C@H](COP(=O)(O)OP(=O)(O)OP(=O)(O)O)[C@@H](OC(=O)c2ccc(C(=O)c3ccccc3)cc2)[C@H]1O` [BzATP, Benzoyl ATP], in assay [2], the “extracellular ATP level in supernatants after addition of BzATP” value was “about 400±55 nM”. Also, the “luminescence increase on addition of BzATP” value is recorded as “large luminescence increase” in assay [3] (HEK293-rP2X7/pmeLUC cells (not shown)), “not” in assay [5] (HEK293-pmeLUC cells (no P2X7R)) and “large luminescence increase” in assay [7] (HEK293-hP2X7/pmeLUC cells). In addition, the “ATP release induced by BzATP” value in assay [4] (ACN neuroblastoma cells, FIG. 3E) is “large ATP release”. The “effect of BzATP on extracellular ATP in supernatants” value in assay [6] is reported as “no effect”. In addition, the “peak ATP concentration from calibration of BzATP triggered luminescence increase” value in assay [7] (HEK293-hP2X7/pmeLUC cells) is “about 250 μM”.
Regarding `Nc1nc2c(ncn2[C@@H]2O[C@H](COP(=O)(O)OP(=O)(O)OP(=O)(O)O)[C@@H](O)[C@H]2O)c(=O)[nH]1` [GTP], the “sensitivity of pmeLUC” value in assay [1] was “insensitive”.
With `O=c1ccn([C@@H]2O[C@H](COP(=O)(O)OP(=O)(O)O)[C@@H](O)[C@H]2O)c(=O)[nH]1` [UDP], the “sensitivity of pmeLUC” value in assay [1] is reported as “insensitive”.
With `O=c1ccn([C@@H]2O[C@H](COP(=O)(O)OP(=O)(O)OP(=O)(O)O)[C@@H](O)[C@H]2O)c(=O)[nH]1` [UTP], in assay [1], the “sensitivity of pmeLUC” value is reported as “insensitive”.
Take `C[N+](C)(C)CCOC(N)=O` [carbachol]: in assay [5], the “ATP release triggered by agonists of G protein-coupled receptors” value is “negligible ATP release”.
Take `NCCc1c[nH]cn1` [histamine]: in assay [5], the “ATP release triggered by agonists of G protein-coupled receptors” value is recorded as “negligible ATP release”.
As to `Nc1ncnc2c1ncn2[C@@H](C=O)O[C@@H](C=O)COP(=O)(O)OP(=O)(O)OP(=O)(O)O` [oATP, oxidized ATP], in assay [1] (calibration curve in presence and absence of oATP, not shown), the “effect on ATP-dependent luminescence increase (calibration curve; inhibition of luciferase itself)” value is “not affected”. The “ATP-induced luminescence increase in oATP-treated cells” value is “matches exactly that of HEK293-pmeLUC” in assay [3] (HEK293-rP2X7/pmeLUC, pre-treatment with oATP, FIG. 4A) and “matches exactly that of HEK293-pmeLUC” in assay [7] (HEK293-hP2X7/pmeLUC, pre-treatment with oATP, FIG. 4B). Further, in assay [4] (ACN cells, 300 μM oATP), the “block of BzATP-induced ATP release” value is “fully blocked”. Also, the “basal luminescence total level after treatment with oATP” value in assay [4] (ACN cells, n=5, before treatment 3500±350 cps) stood at 1500±260 cps. Also, in assay [7] (HEK293-hP2X7/pmeLUC, n=8, untreated 12250±1500 cps), the “basal luminescence after oATP pretreatment” value came out at 5800±1300 cps. Besides, the “block of the BzATP-triggered luminescence increase” value in assay [7] (pre-treatment with 300 μM oATP for 2 hours, HEK293-hP2X7/pmeLUC) is given as “fully blocked”.
